What was measured:
Assay in all cases: relative viability (nuclei count vs DMSO), 5 days (fraction); higher = more cells survive
EPLC-272H = test system: EPLC-272H
Outline: (§1)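 Cells from lung cancer lines were seeded into 1536-well plates and, one day later, dosed by pin tool. Treatments were either a single drug or a fixed dose of an anchor drug with five library-drug doses (not always all listed) in √10 steps. After 5 days, nuclei were stained in a one-step fixation (final 0.05% Triton X-100, 1% formaldehyde, 1 ug/ml Hoechst) and counted on 4× images, and relative viability is the treated-to-vehicle nuclei ratio, as the median of duplicate plates.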

NCI-H1975 = test system: NCI-H1975
Outline: as §1

LXF-289 = test system: LXF-289
Outline: as §1

UMC-11 = test system: UMC-11
Outline: as §1

HCC-78 = test system: HCC-78
Outline: as §1

NCI-H1915 = test system: NCI-H1915
Outline: as §1

SK-LU-1 = test system: SK-LU-1
Outline: as §1

LC-2-ad = test system: LC-2-ad
Outline: as §1

NCI-H358 = test system: NCI-H358
Outline: as §1

NCI-H1755 = test system: NCI-H1755
Outline: as §1

HOP-62 = test system: HOP-62
Outline: as §1

NCI-H2170 = test system: NCI-H2170
Outline: as §1

NCI-H460 = test system: NCI-H460
Outline: as §1

A-427 = test system: A-427
Outline: as §1

LU99A = test system: LU99A
Outline: as §1

NCI-H2085 = test system: NCI-H2085
Outline: as §1

LCLC-97TM1 = test system: LCLC-97TM1
Outline: as §1

COR-L 105 = test system: COR-L 105
Outline: as §1

NCI-H1793 = test system: NCI-H1793
Outline: as §1

HCC-366 = test system: HCC-366
Outline: as §1

NCI-H1944 = test system: NCI-H1944
Outline: as §1

SW 900 = test system: SW 900
Outline: as §1

With `O=C(O)c1ccc(-c2c[nH]c3ncc(-c4ccccc4)cc23)cc1C1CCCC1` + O=C(CCCCCCC(=O)Nc1ccccc1)NO [Vorinostat] (partner 1 µM) the relative viability (EPLC-272H; first compound 0.04 µM) was 0.503, the relative viability (EPLC-272H; first compound 0.1265 µM) was 0.654 and the relative viability (EPLC-272H; first compound 0.4 µM) was 0.483. For the same compound, the relative viability (EPLC-272H; first compound 1.265 µM) was 0.261, the relative viability (NCI-H1975; first compound 0.04 µM) was 0.684 and the relative viability (NCI-H1975; first compound 0.1265 µM) was 0.763. It also gave a relative viability (NCI-H1975; first compound 0.4 µM) of 0.736, a relative viability (NCI-H1975; first compound 1.265 µM) of 0.441 and a relative viability (LXF-289; first compound 0.04 µM) of 0.769. It also gave a relative viability (LXF-289; first compound 0.1265 µM) of 0.773, a relative viability (LXF-289; first compound 0.4 µM) of 0.632 and a relative viability (LXF-289; first compound 1.265 µM) of 0.398. The relative viability (UMC-11; first compound 0.04 µM) was 0.419, the relative viability (UMC-11; first compound 0.1265 µM) was 0.321 and the relative viability (UMC-11; first compound 0.4 µM) was 0.347. It also gave a relative viability (UMC-11; first compound 1.265 µM) of 0.219, a relative viability (HCC-78; first compound 0.1265 µM) of 0.451 and a relative viability (HCC-78; first compound 0.4 µM) of 0.441. The relative viability (HCC-78; first compound 1.265 µM) was 0.448, the relative viability (NCI-H1915; first compound 0.04 µM) was 0.532 and the relative viability (NCI-H1915; first compound 0.1265 µM) was 0.525. The relative viability (NCI-H1915; first compound 0.4 µM) was 0.501, the relative viability (NCI-H1915; first compound 1.265 µM) was 0.479 and the relative viability (SK-LU-1; first compound 0.04 µM) was 0.793. The relative viability (SK-LU-1; first compound 0.1265 µM) was 0.717, the relative viability (SK-LU-1; first compound 0.4 µM) was 0.684 and the relative viability (SK-LU-1; first compound 1.265 µM) was 0.364. It also gave a relative viability (LC-2-ad; first compound 0.04 µM) of 0.692, a relative viability (LC-2-ad; first compound 0.1265 µM) of 0.696 and a relative viability (LC-2-ad; first compound 0.4 µM) of 0.668. It also gave a relative viability (LC-2-ad; first compound 1.265 µM) of 0.454, a relative viability (NCI-H358; first compound 0.04 µM) of 0.574 and a relative viability (NCI-H358; first compound 0.1265 µM) of 0.795. The relative viability (NCI-H358; first compound 0.4 µM) was 0.536, the relative viability (NCI-H358; first compound 1.265 µM) was 0.229 and the relative viability (NCI-H1755; first compound 0.04 µM) was 0.762. It also gave a relative viability (NCI-H1755; first compound 0.1265 µM) of 0.806, a relative viability (NCI-H1755; first compound 0.4 µM) of 0.797 and a relative viability (NCI-H1755; first compound 1.265 µM) of 0.745. It also gave a relative viability (HOP-62; first compound 0.04 µM) of 0.694, a relative viability (HOP-62; first compound 0.1265 µM) of 0.606 and a relative viability (HOP-62; first compound 0.4 µM) of 0.594. For the same compound, the relative viability (HOP-62; first compound 1.265 µM) was 0.48, the relative viability (NCI-H2170; first compound 0.04 µM) was 0.82 and the relative viability (NCI-H2170; first compound 0.1265 µM) was 0.863. For the same compound, the relative viability (NCI-H2170; first compound 0.4 µM) was 0.893, the relative viability (NCI-H2170; first compound 1.265 µM) was 0.734 and the relative viability (NCI-H460; first compound 0.04 µM) was 0.642. The relative viability (NCI-H460; first compound 0.1265 µM) was 0.842, the relative viability (NCI-H460; first compound 0.4 µM) was 0.831 and the relative viability (NCI-H460; first compound 1.265 µM) was 0.603. It also gave a relative viability (A-427; first compound 0.04 µM) of 0.822, a relative viability (A-427; first compound 0.1265 µM) of 0.84 and a relative viability (A-427; first compound 0.4 µM) of 0.793. The relative viability (A-427; first compound 1.265 µM) was 0.742, the relative viability (LU99A; first compound 0.04 µM) was 0.583 and the relative viability (LU99A; first compound 0.1265 µM) was 0.46. The relative viability (LU99A; first compound 0.4 µM) was 0.469, the relative viability (LU99A; first compound 1.265 µM) was 0.421 and the relative viability (NCI-H2085; first compound 0.04 µM) was 0.793. It also gave a relative viability (NCI-H2085; first compound 0.1265 µM) of 0.857, a relative viability (NCI-H2085; first compound 0.4 µM) of 0.779 and a relative viability (NCI-H2085; first compound 1.265 µM) of 0.642. It also gave a relative viability (LCLC-97TM1; first compound 0.04 µM) of 0.876, a relative viability (LCLC-97TM1; first compound 0.1265 µM) of 0.94 and a relative viability (LCLC-97TM1; first compound 0.4 µM) of 0.747. For the same compound, the relative viability (LCLC-97TM1; first compound 1.265 µM) was 0.525, the relative viability (COR-L 105; first compound 0.04 µM) was 0.912 and the relative viability (COR-L 105; first compound 0.1265 µM) was 0.942. The relative viability (COR-L 105; first compound 0.4 µM) was 0.773, the relative viability (COR-L 105; first compound 1.265 µM) was 0.921 and the relative viability (NCI-H1793; first compound 0.04 µM) was 0.835. It also gave a relative viability (NCI-H1793; first compound 0.1265 µM) of 1.16, a relative viability (NCI-H1793; first compound 0.4 µM) of 0.84 and a relative viability (NCI-H1793; first compound 1.265 µM) of 0.744. For the same compound, the relative viability (HCC-366; first compound 0.04 µM) was 0.368, the relative viability (HCC-366; first compound 0.1265 µM) was 0.531 and the relative viability (HCC-366; first compound 0.4 µM) was 0.394. For the same compound, the relative viability (HCC-366; first compound 1.265 µM) was 0.403, the relative viability (NCI-H1944; first compound 0.04 µM) was 0.53 and the relative viability (NCI-H1944; first compound 0.1265 µM) was 0.573. The relative viability (NCI-H1944; first compound 0.4 µM) was 0.582, the relative viability (NCI-H1944; first compound 1.265 µM) was 0.465 and the relative viability (SW 900; first compound 0.04 µM) was 0.602. It also gave a relative viability (SW 900; first compound 0.1265 µM) of 0.611, a relative viability (SW 900; first compound 0.4 µM) of 0.582 and a relative viability (SW 900; first compound 1.265 µM) of 0.437.

Source: the supplement of paper PMC10307832
